Measurements: the supplement of paper PMC5844555

Assays:
Test in all cases: 3' UTR reporter interaction score (median-centred robust z-score of log2 firefly/Renilla activity); higher = less repression of the 3' UTR reporter
Conditions in all cases: HEK293T; 48 h
[1] = test system: BRCA2
Method in brief: (§1)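 The interaction score is based on the log-transformed firefly/Renilla luciferase ratio, scaled as a robust z-score within each plate by median and median absolute deviation and median-centred for each miRNA; more negative scores indicate interaction. It was averaged over at least two independent screens. Readings were taken 48 h after HEK293T cells (10,000/well, 96-well plates) were co-transfected by DharmaFECT Duo with 100 ng firefly luc2P 3' UTR reporter, 20 ng Renilla pRL-TK and 2.5 pmol miRNA mimic.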

[2] = test system: EZH2
Method in brief: as §1

[3] = test system: FBXW7
Method in brief: as §1

[4] = test system: HRAS
Method in brief: as §1

[5] = test system: MYB
Method in brief: as §1

[6] = test system: MYCN
Method in brief: as §1

[7] = test system: MYC
Method in brief: as §1

[8] = test system: MYT1L
Method in brief: as §1

[9] = test system: NOTCH1
Method in brief: as §1

[10] = test system: PHF6
Method in brief: as §1

[11] = test system: PHOX2B
Method in brief: as §1

[12] = test system: RB1
Method in brief: as §1

[13] = test system: TP53
Method in brief: as §1

[14] = test system: ZEB2
Method in brief: as §1

Sequence | 3' UTR reporter interaction score [1] | 3' UTR reporter interaction score [2] | 3' UTR reporter interaction score [3] | 3' UTR reporter interaction score [4] | 3' UTR reporter interaction score [5] | 3' UTR reporter interaction score [6] | 3' UTR reporter interaction score [7] | 3' UTR reporter interaction score [8] | 3' UTR reporter interaction score [9] | 3' UTR reporter interaction score [10] | 3' UTR reporter interaction score [11] | 3' UTR reporter interaction score [12] | 3' UTR reporter interaction score [13] | 3' UTR reporter interaction score [14]
UCCAGUACCACGUGUCAGGGCCA | 0.581 | -1.44 | -1.35 | 0.159 | 0.593 | -3.01 | -0.893 | 0.747 | 0.223 | -0.805 | 0.294 | 0.837 | -0.171 | 0.742
CUCUAGAGGGAAGCACUUUCU | -0.166 | -0.021 | -1.73 | 0.934 | 1.78 | -0.174 | 0.565 | -0.138 | 0.59 | -0.252 | -1.07 | -0.897 | -0.127 | 1.31
GCGAGGACCCCUCGGGGUCUGAC | 0.357 | -0.18 | 0.437 | 0.0816 | 0.547 | -0.654 | -0.466 | -0.47 | -0.131 | -0.251 | 0.436 | 0.707 | 0.0903 | -0.584
UCACAAUGCUGACACUCAAACUGCUGAC | -3.53 | 0.195 | 0.257 | -0.335 | -0.419 | -0.126 | 0.447 | 0.647 | -0.0831 | 0.399 | 0.242 | -0.143 | -0.424 | -1.11
UUGCAUAGUCACAAAAGUGA | -0.381 | 0.179 | 1.37 | -0.0974 | -1.85 | 0.143 | 0.279 | -0.0799 | 0.184 | -0.0278 | 0.0715 | -0.308 | 0.904 | -2.2
UACCCUGUAGAACCGAAUUUGU | 0.189 | 1.07 | -0.174 | 0.849 | 0.245 | -0.116 | 0.546 | -2.07 | -1.66 | 0.333 | -0.86 | -0.148 | -0.546 | -1.8
AUUCCUAGAAAUUGUUCAUA | 0.0394 | 0.167 | 0.157 | -0.0105 | 0.61 | -0.577 | -0.586 | 1.2 | 0.632 | 0.216 | -0.529 | -0.707 | -0.0494 | -0.418
AAAGUGCUUCCUUUUAGAGGG | -0.12 | -1.28 | 0.755 | 0.261 | -0.541 | -0.401 | 0.194 | -0.373 | 1.06 | 0.188 | 1.35 | 0.0746 | 0.0995 | 0.554
ACUUGGGCACUGAAACAAUGUCC | -0.973 | -1.19 | -0.0493 | -0.00106 | -0.103 | 0.382 | 0.112 | 0.0827 | -4.15 | 1.39 | 0.564 | 0.0718 | -1.34 | 1.78
AUCAUAGAGGAAAAUCCAUGUU | -0.0049 | 0.791 | -0.575 | -0.664 | 0.366 | 0.0452 | -0.229 | -0.0506 | 1.28 | -0.0407 | 0.462 | 0.00936 | 0.636 | -1.1
GUGCAUUGUAGUUGCAUUG | -0.383 | -0.326 | 0.387 | -0.432 | 0.56 | -0.218 | -0.88 | -0.399 | 0.471 | -0.0198 | 1.4 | -0.339 | 0.444 | -0.884
ACAAAGUGCUUCCCUUUAGAGU | -0.366 | -0.0342 | 0.628 | 0.332 | 0.129 | -0.183 | -0.239 | -0.45 | 0.795 | -0.537 | 1.29 | -0.344 | -0.415 | 0.377
GGUAGAUUCUCCUUCUAUGAG | -0.394 | -0.351 | 1.14 | -0.338 | 0.783 | 0.767 | 0.11 | 1.11 | -0.435 | 0.87 | 0.393 | -0.935 | -0.00155 | 0.717
UUAAGACUUGCAGUGAUGUUUAA | 0.155 | 0.772 | 1.23 | 0.424 | -1.14 | 0.438 | -0.159 | -0.158 | 0.344 | -1.09 | -0.221 | -2.53 | 1.42 | -4.05
GUCCGCUCGGCGGUGGCCCA | -0.044 | 0.465 | -0.455 | 0.202 | 0.218 | -0.651 | -0.572 | 0.878 | 0.197 | 0.23 | 0.167 | -0.471 | 0.883 | 0.167
CUCCAGAGGGAUGCACUUUCU | -0.169 | 0.363 | -0.219 | -0.937 | -0.659 | -0.234 | 0.629 | 0.128 | 0.885 | 1.04 | 1.08 | 0.459 | 0.339 | -0.701
UGAAGGUCUACUGUGUGCCAG | -0.173 | 0.277 | 0.56 | -0.000203 | 0.992 | 0.394 | -0.0308 | -2.06 | -0.37 | -1.33 | 0.626 | -1.18 | 1.34 | 0.194
CUUGGUUCAGGGAGGGUCCCCA | -0.342 | 0.379 | -2.49 | -0.543 | 0.238 | 0.421 | -0.0193 | 0.48 | -0.824 | 0.112 | 0.231 | -0.223 | -0.22 | 1.64
AGAGGCUGGCCGUGAUGAAUUC | -0.104 | 0.351 | -0.536 | -0.467 | 0.549 | 0.202 | -1.78 | -1.95 | 0.488 | 2.37 | 1.42 | -0.425 | -1.7 | 0.958
UCUUGUGUUCUCUAGAUCAGU | 0.0649 | 0.661 | -0.787 | 0.641 | 0.224 | 0.747 | -0.281 | -0.612 | -0.00434 | -1.56 | -1.16 | 0.632 | -0.0759 | 0.366
ACUCCAGCCCCACAGCCUCAGC | -0.443 | -0.117 | -1.03 | 0.232 | 0.784 | 0.185 | -0.755 | -0.581 | -0.369 | -1.69 | 1.37 | 0.647 | -0.602 | -0.519
CUCCAGAGGGAAGUACUUUCU | -0.139 | -0.448 | 1.4 | -1.03 | 1.53 | -0.236 | -0.333 | 1.19 | -0.176 | 1.27 | 0.786 | -2.92 | -0.641 | 0.514
UGAAACAUACACGGGAAACCUCUU | 0.436 | 0.948 | 1.59 | -0.108 | -0.521 | -2.74 | -4.26 | 0.0487 | 2.03 | 2.68 | -0.468 | -0.893 | -0.757 | 0.135
CUGGGAUCUCCGGGGUCUUGGUU | -0.371 | -0.155 | 0.0113 | -0.593 | -0.958 | 0.56 | 0.773 | -0.147 | -0.177 | -0.552 | 0.484 | 2.57 | -1.29 | -0.251
GUUCUCCCAACGUAAGCCCAGC | -0.8 | 0.22 | 1.08 | 0.00988 | -4.37 | 0.962 | -0.299 | 0.882 | -0.479 | 0.685 | 1.74 | -0.277 | 0.732 | -0.194
AGUGGUUUUACCCUAUGGUAG | -2.62 | 0.908 | -0.0104 | -0.669 | 2.26 | 0.551 | 0.603 | 1.52 | -0.395 | 1.32 | 1.56 | 1.79 | -3.34 | -0.644
GAGCUUAUUCAUAAAAGUGCAG | 0.117 | 0.564 | -1.75 | 0.562 | 0.663 | 0.314 | 1.07 | -2.82 | -0.458 | -0.038 | -0.299 | 2.05 | -1.36 | -1.29
UGCUGACUCCUAGUCCAGGGC | -3.34 | 0.906 | 0.322 | -1.77 | 0.123 | 0.0884 | 0.54 | 0.333 | -0.364 | 1.06 | -0.537 | 2.05 | 0.366 | -1.99
